Source: patent publication US6127375A, “4,4-disubstituted-3,4-dihydro-2(1H)-quinazolinthiones useful as HIV reverse transcriptase inhibitors” (Dupont Pharmaceuticals Company, priority 1999, dated 2000)
Converted amounts (≈) assume the structure as drawn.

Tested on: HIV-1 (RF)
Assay: HIV RNA Assay: Microplate Based Compound Evaluation in HIV-1 Infected MT-2 Cells
Assay type: cell-based
Settings: Human immunodeficiency virus 1, MT2, 72 h; HIV-1 (RF) in MT-2 cells, 3 days at 37° C.; value to which virus inoculum was standardized (~3×10^5 PFU per assay well); read-out: IC90 value (concentration of compound required to reduce the HIV RNA level by 90%)
Procedure: Plasmid pDAB 72 containing both gag and pol sequences of BH10 (bp 113-1816) cloned into PTZ 19R was prepared according to Erickson-Viitanen et al. AIDS Research and Human Retroviruses 1989, 5, 577. The plasmid was linearized with Bam HI prior to the generation of in vitro RNA transcripts using the Riboprobe Gemini system II kit (Promega) with T7 RNA polymerase. Synthesized RNA was purified by treatment with RNase free DNAse (Promega), phenol-chloroform extraction, and ethanol precipitation. RNA transcripts were dissolved in water, and stored at -70° C. The concentration of RNA was determined from the A260.
Biotinylated capture probes were purified by HPLC after synthesis on an Applied Biosystems (Foster City, Calif.) DNA synthesizer by addition of biotin to the 5' terminal end of the oligonucleotide, using the biotin-phosphoramidite reagent of Cocuzza, Tet. Lett. 1989, 30, 6287. […]
MT-2 and MT-4 cells were maintained in RPMI 1640 supplemented with 5% fetal calf serum (FCS) for MT-2 cells or 10% FCS for MT-4 cells, 2 mM L-glutamine and 50 μg/mL gentamycin, all from Gibco. […] Infectious titers of HIV-1(RF) stocks were 1-3×10^7 PFU (plaque forming units)/mL as measured by plaque assay on MT-2 cells (see below). […]

IC90: 0.2 µg/mL (≈ 0.947 µM)
Structure (SMILES): Nc1ccn([C@H]2CC[C@@H](CO)O2)c(=O)n1 [ddC, 2',3'-dideoxycytidine]
